From patent publication US20230278998A1, “Compound containing structure of a five-membered heteroaromatic ring, pharmaceutical compositions thereof and applications thereof” (280 Bio, Inc., priority 2022, published 2023)

target: PARG (389-976) (Homo sapiens (Human), UniProt Q86W56); test: PARG enzyme inhibition assay (TR-FRET); assay type: biochemical; conditions: Table 1, class symbol
Experimental: PARG Enzyme Inhibition Assay
PARG in vitro assays were conducted in standard 384-well plates in a total volume of 15 μL.

Sequence of PARG (389-976) (Q86W56 389-976): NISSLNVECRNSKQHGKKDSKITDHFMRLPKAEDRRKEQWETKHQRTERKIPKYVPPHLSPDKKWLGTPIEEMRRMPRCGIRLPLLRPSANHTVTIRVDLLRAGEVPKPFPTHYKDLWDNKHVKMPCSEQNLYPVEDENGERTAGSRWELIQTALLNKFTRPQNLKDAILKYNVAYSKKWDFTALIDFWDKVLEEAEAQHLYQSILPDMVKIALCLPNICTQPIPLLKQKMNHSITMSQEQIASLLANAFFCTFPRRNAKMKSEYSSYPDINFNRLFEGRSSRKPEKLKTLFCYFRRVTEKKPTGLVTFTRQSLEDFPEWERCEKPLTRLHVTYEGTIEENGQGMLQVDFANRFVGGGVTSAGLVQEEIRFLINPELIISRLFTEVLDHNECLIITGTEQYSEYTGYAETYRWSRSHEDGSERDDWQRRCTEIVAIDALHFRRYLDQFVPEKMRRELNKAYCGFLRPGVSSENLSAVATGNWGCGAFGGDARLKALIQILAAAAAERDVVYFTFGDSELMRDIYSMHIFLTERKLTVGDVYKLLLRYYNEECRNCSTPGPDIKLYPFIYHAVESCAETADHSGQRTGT

IC50 [nM] | Structure (SMILES)
< 100 | Cc1nnc(-c2nn(Cc3sc(C)nc3C)c3ccc(S(=O)(=O)NC4(C)CC4)cc23)s1 [Compound 2]
< 100 | Cc1nc(C)c(Cn2nc(-c3nnc(C(F)F)s3)c3cc(S(=O)(=O)NC4(CF)CC4)ccc32)s1 [Compound 4]
< 100 | Cc1nc(C)c(Cn2c(Cl)c(-c3nnc(C(F)F)s3)c3cc(S(=O)(=O)NC4(C)CC4)ccc32)s1 [Compound 7]
< 100 | Cc1nc(C)c(Cn2cc(-c3nnc(C(F)F)s3)c3cc(S(=O)(=O)NC4(C)CC4)ccc32)s1 [Compound 8]
< 100 | Cc1nc(C)c(Cn2nc(-c3nnc(C(F)F)s3)c3cc(S(=O)(=O)NC4(C)CC4)cnc32)s1 [Compound 9]
100 to 1000 | Cc1nc(C)c(Cn2nc(-c3nnc(C(F)F)s3)c3cc(S(=O)(=O)NC4(C)CC4)cc(C(F)(F)F)c32)s1 [Compound 10]
100 to 1000 | Cc1nc(C)c(Cn2nc(-c3nnc(C(F)F)s3)c3nc(S(=O)(=O)NC4(C)CC4)ccc32)s1 [Compound 11]

Structure (SMILES) | IC50 [nM]
Cc1nc(C)c(Cn2nc(-c3nnc(C(F)F)s3)c3cc(S(=O)(=O)NC4(C)CC4)ccc32)s1 [Compound 1] | < 100
O=S(=O)(NC1(CF)CC1)c1ccc2c(c1)c(-c1nnc(C(F)F)s1)nn2CC1CC1 [Compound 12] | < 100

same assay, conditions: Table 2, class symbol

IC50 [nM] | Structure (SMILES)
< 100 | Cc1nc(C)c(Cn2nc(-c3nnc(C(F)F)s3)c3cc(S(=O)(=O)NC4(C)CC4)c(F)cc32)s1 [Compound 13]
< 100 | Cc1nc(C)c(Cn2nc(-c3nnc(C(F)F)s3)c3cc(S(=O)(=O)NC4(C)CC4)cc(F)c32)s1 [Compound 14]
< 100 | CC(C)C(=O)N1CCN(c2cc(S(=O)(=O)NC3(C)CC3)cc3c(-c4nnc(C(F)F)s4)nn(C(C)C)c23)CC1 [Compound 16]
< 100 | CC(C)C(=O)N1CCN(c2cc(S(=O)(=O)NC3(C#N)CC3)cc3c(-c4nnc(C(F)F)s4)n[nH]c23)CC1 [Compound 18]
< 100 | Cc1nc(C)c(Cn2nc(-c3nnc(C(F)F)s3)c3cc(S(=O)(=O)NC4(C)CC4)cc(N4CCN(C(=O)C(C)C)CC4)c32)s1 [Compound 19]
< 100 | Cn1nc(-c2nnc(C(F)F)s2)c2cc(S(=O)(=O)NC3(C)CC3)cc(N3CCn4cncc4C3)c21 [Compound 20]
< 100 | CC(C)C(=O)N1CCN(c2cc(S(=O)(=O)NC3(C)CC3)cc3c(-c4nnc(C(F)F)s4)nn(C4CC4)c23)CC1 [Compound 21]
< 100 | CCn1nc(-c2nnc(C(F)F)s2)c2cc(S(=O)(=O)NC3(C)CC3)cc(N3CCN(C(=O)C(C)C)CC3)c21 [Compound 22]
< 100 | CC(C)C(=O)N1CCN(c2cc(S(=O)(=O)NC3(C)CC3)cc3c(-c4nnc(C(F)F)s4)nn(CC(F)(F)F)c23)CC1 [Compound 23]
< 100 | CCn1nc(-c2nnc(C(F)F)s2)c2cc(S(=O)(=O)NC3(C#N)CC3)cc(N3CCN(C(=O)C(C)C)CC3)c21 [Compound 26]
< 100 | Cn1nc(-c2nnc(C(F)F)s2)c2cc(S(=O)(=O)NC3(C#N)CC3)cc(-c3ccccc3)c21 [Compound 28]
< 100 | Cn1nc(-c2nnc(C(F)F)s2)c2cc(S(=O)(=O)NC3(C#N)CC3)cc(N3CCOCC3)c21 [Compound 29]
< 100 | CC(C)C(=O)N1CCN(c2cc(S(=O)(=O)NC3(C#N)CC3)cc3c(-c4nnc(C(F)F)s4)nn(CC(F)(F)F)c23)CC1 [Compound 30]
< 100 | Cn1nc(-c2nnc(C(F)F)s2)c2cc(S(=O)(=O)NC3(C#N)CC3)cc(-c3ccncn3)c21 [Compound 31]
< 100 | CC(=O)N1CCN(c2cc(S(=O)(=O)NC3(C#N)CC3)cc3c(-c4nnc(C(F)F)s4)nn(C)c23)CC1 [Compound 32]
< 100 | CN(C)C(=O)N1CCN(c2cc(S(=O)(=O)NC3(C#N)CC3)cc3c(-c4nnc(C(F)F)s4)nn(C)c23)CC1 [Compound 33]
< 100 | C[C@H]1CN(c2cc(S(=O)(=O)NC3(C#N)CC3)cc3c(-c4nnc(C(F)F)s4)nn(C)c23)CCO1 [Compound 35]
< 100 | Cn1nc(-c2nnc(C(F)F)s2)c2cc(S(=O)(=O)NC3(C#N)CC3)cc(N3CCN(C(=O)c4ccccc4)CC3)c21 [Compound 36]
< 100 | C[C@@H]1CN(c2cc(S(=O)(=O)NC3(C#N)CC3)cc3c(-c4nnc(C(F)F)s4)nn(C)c23)CCO1 [Compound 37]

IC50 [nM] | Structure (SMILES)
< 100 | Cn1nc(-c2nnc(C(F)F)s2)c2cc(S(=O)(=O)NC3(C#N)CC3)cc(N3CCN(C(=O)C4(C)CC4)CC3)c21 [Compound 38]
< 100 | CC(C)C(=O)N1CC=C(c2cc(S(=O)(=O)NC3(C#N)CC3)cc3c(-c4nnc(C(F)F)s4)nn(C)c23)CC1 [Compound 40]
< 100 | Cn1nc(-c2nnc(C(F)F)s2)c2cc(S(=O)(=O)NC3(C#N)CC3)cc(N3CCN(c4cccnn4)CC3)c21 [Compound 41]
< 100 | Cn1nc(-c2nnc(C(F)F)s2)c2cc(S(=O)(=O)NC3(C#N)CC3)cc(N3CCC(O)CC3)c21 [Compound 42]
< 100 | Cn1nc(-c2nnc(C(F)F)s2)c2cc(S(=O)(=O)NC3(C#N)CC3)cc(N3CCN(C(=O)c4ccccn4)CC3)c21 [Compound 43]
< 100 | Cn1nc(-c2nnc(C(F)F)s2)c2cc(S(=O)(=O)NC3(C#N)CC3)cc(N3CCC(CO)CC3)c21 [Compound 44]
< 100 | CCC(=O)N1CCN(c2cc(S(=O)(=O)NC3(C#N)CC3)cc3c(-c4nnc(C(F)F)s4)nn(C)c23)CC1 [Compound 45]
< 100 | Cn1nc(-c2nnc(C(F)F)s2)c2cc(S(=O)(=O)NC3(C#N)CC3)cc(N3CCC4(CC3)COC4)c21 [Compound 46]
< 100 | CC(C)S(=O)(=O)N1CCN(c2cc(S(=O)(=O)NC3(C#N)CC3)cc3c(-c4nnc(C(F)F)s4)nn(C)c23)CC1 [Compound 48]
< 100 | CC(C)CN1CCN(c2cc(S(=O)(=O)NC3(C#N)CC3)cc3c(-c4nnc(C(F)F)s4)nn(C)c23)CC1 [Compound 49]
< 100 | CCC(C)C(=O)N1CCN(c2cc(S(=O)(=O)NC3(C#N)CC3)cc3c(-c4nnc(C(F)F)s4)nn(C)c23)CC1 (stereo not shown) [Compound 50]
< 100 | Cn1nc(-c2nnc(C(F)F)s2)c2cc(S(=O)(=O)NC3(C#N)CC3)cc(N3CCN(C(=O)N4CCCC4)CC3)c21 [Compound 51]
< 100 | Cn1nc(-c2nnc(C(F)F)s2)c2cc(S(=O)(=O)NC3(C#N)CC3)cc(N3CCN(C(=O)CC(F)(F)F)CC3)c21 [Compound 52]
< 100 | Cn1nc(-c2nnc(C(F)F)s2)c2cc(S(=O)(=O)NC3(C#N)CC3)cc(N3CCN(c4ccccc4)CC3)c21 [Compound 53]
< 100 | CC(C)N1CCN(c2cc(S(=O)(=O)NC3(C#N)CC3)cc3c(-c4nnc(C(F)F)s4)nn(C)c23)CC1 [Compound 54]
< 100 | N#CC1(NS(=O)(=O)c2ccc3c(c2)c(-c2nnc(C(F)F)s2)nn3Cc2ccc(F)cc2)CC1 [Compound 57]
< 100 | CC1(NS(=O)(=O)c2ccc3c(c2)c(-c2nnc(C(F)F)s2)nn3Cc2ccc3cn[nH]c3c2)CC1 [Compound 58]
< 100 | CC1(NS(=O)(=O)c2ccc3c(c2)c(-c2nnc(C(F)F)s2)nn3Cc2ccc3cncn3c2)CC1 [Compound 59]
< 100 | CC(C)C(=O)N1CCN(c2cc(S(=O)(=O)NC3(C#N)CC3)cc3c(-c4cnn(C)c4)nn(C)c23)CC1 [Compound 61]

Structure (SMILES) | IC50 [nM]
CC(C)C(=O)N1CCN(c2cc(S(=O)(=O)NC3(C)CC3)cc3c(-c4nnc(C(F)F)s4)nn(CC4CC4)c23)CC1 [Compound 15] | < 100
Cn1nc(-c2nnc(C(F)F)s2)c2cc(S(=O)(=O)NC3(C#N)CC3)cc(N3CCN(C(=O)C4CC4)CC3)c21 [Compound 24] | < 100
Cn1nc(-c2nnc(C(F)F)s2)c2cc(S(=O)(=O)NC3(C)CC3)cc(N3CCOCC3)c21 [Compound 25] | < 100
Cn1nc(-c2nnc(C(F)F)s2)c2cc(S(=O)(=O)NC3(C)CC3)cc(N3CCN(C(=O)C4CC4)CC3)c21 [Compound 27] | < 100
Cn1nc(-c2nnc(C(F)F)s2)c2cc(S(=O)(=O)NC3(C#N)CC3)cc(N3CCN(S(C)(=O)=O)CC3)c21 [Compound 34] | < 100
Cn1nc(-c2nnc(C(F)F)s2)c2cc(S(=O)(=O)NC3(C#N)CC3)cc(N3CCN(C(=O)C(F)(F)F)CC3)c21 [Compound 47] | < 100
CC(C)C(=O)N1CCN(c2cc(S(=O)(=O)NC3(C#N)CC3)cc3c(-c4nnc(C(F)F)s4)nn(C(F)F)c23)CC1 [Compound 55] | < 100
Cc1nnc(-c2nn(C)c3c(N4CCN(C(=O)C(C)C)CC4)cc(S(=O)(=O)NC4(C#N)CC4)cc23)s1 [Compound 56] | < 100
Cn1nc(-c2nnc(C(F)F)s2)c2cc(S(=O)(=O)NC3(C#N)CC3)cc(N3CCC(N=[N+]=[N-])CC3)c21 [Compound 60] | < 100
CC(C)C(=O)N1CC2CCC(C1)N2c1cc(S(=O)(=O)NC2(C)CC2)cc2c(-c3nnc(C(F)F)s3)nn(C)c12 [Compound 62] | < 100
CC(C)C(=O)N1CCN(c2cc(S(=O)(=O)NC3(C)CC3)cc3c(-c4nnc(C(F)F)s4)nn(C)c23)C2CC21 (stereo not shown) [Compound 63] | < 100
CC(C)C(=O)N1CCN(c2cc(S(=O)(=O)NC3(C)CC3)cc3c(-c4nnc(C(F)F)s4)csc23)CC1 [Compound 64] | < 100
CC(C)C(=O)N1C2CCC1CN(c1cc(S(=O)(=O)NC3(C)CC3)cc3c(-c4nnc(C(F)F)s4)nn(C)c13)C2 [Compound 65] | < 100

same assay, conditions: Table 2, value in brackets

IC50 [nM] | Structure (SMILES)
0.9 | CC(C)C(=O)N1CCN(c2cc(S(=O)(=O)NC3(C#N)CC3)cc3c(-c4nnc(C(F)F)s4)n[nH]c23)CC1 [Compound 18]
0.9 | Cn1nc(-c2nnc(C(F)F)s2)c2cc(S(=O)(=O)NC3(C#N)CC3)cc(N3CCC4(CC3)COC4)c21 [Compound 46]

same assay, conditions: Table 3, class symbol

IC50 [nM] | Structure (SMILES)
< 100 | CCn1nc(-c2nnc(C(F)F)s2)c2cc(S(=O)(=O)NC3(C)CC3)c(F)c(N3CCN(C(=O)C(C)C)CC3)c21 [Compound 67]
< 100 | CC(C)C(=O)N1CCN(c2cc(S(=O)(=O)NC3(C#N)CC3)cc3c(-c4nnc(C(F)F)s4)nn(C)c23)C[C@H]1C [Compound 69]
< 100 | C[C@H]1CN(c2cc(S(=O)(=O)NC3(C#N)CC3)cc3c(-c4nnc(C(F)F)s4)nn(C)c23)CCN1C(=O)N(C)C [Compound 71]

Structure (SMILES) | IC50 [nM]
CCn1nc(-c2nnc(C(F)F)s2)c2c(F)c(S(=O)(=O)NC3(C)CC3)cc(N3CCN(C(=O)C(C)C)CC3)c21 [Compound 66] | < 100
C[C@@H]1CN(c2cc(S(=O)(=O)NC3(C#N)CC3)cc3c(-c4nnc(C(F)F)s4)nn(C)c23)CCN1C(=O)N(C)C [Compound 70] | < 100
